Experiments:
[1] = test system: CCI-induced static allodynia; assay: Static allodynia (von Frey hairs) in the chronic constriction injury (CCI) rat model of neuropathic pain; format: in vivo
Experimental: Male Sprague Dawley rats weighing 150-400 g obtained from Charles River (Manston, Kent, UK.) were housed in groups of 4. All animals were kept under a 12 h light/dark cycle (lights on at 07 h 00 min) with food and water ad libitum. All experiments were carried out by an observer blind to the treatments and in accordance with the Home Office Animals (Scientific Procedures) Act 1986.
The CCI of sciatic nerve was performed as previously described by Bennett and Xie (Bennett G J, Xie Y K. A peripheral mononeuropathy in rat that produces disorders of pain sensation like those seen in man. Pain: 33:87-107, 1988). Animals were anaesthetised with a 2% isofluorane/O2 mixture. The right hind thigh was shaved and swabbed with 1% iodine. Animals were then transferred to a homeothermic blanket for the duration of the procedure and anaesthesia maintained during surgery via a nose cone. The skin was cut along the line of the thighbone. The common sciatic nerve was exposed at the middle of the thigh by blunt dissection through biceps femoris. About 7 mm of nerve was freed proximal to the sciatic trifurcation, by inserting forceps under the nerve and the nerve gently lifted out of the thigh. Suture was pulled under the nerve using forceps and tied in a simple knot until slight resistance was felt and then double knotted. The procedure was repeated until 4 ligatures (4-0 silk) were tied loosely around the nerve with approx 1 mm spacing. The incision was closed in layers.
Animals were habituated to wire bottom test cages prior to the assessment of allodynia. Static allodynia was evaluated by application of von Frey hairs (Stoelting, Wood Dale, Ill., USA.) in ascending order of force (0.6, 1, 1.4, 2, 4, 6, 8, 10, 15 and 26 grams) to the plantar surface of hind paws. Each von Frey hair was applied to the paw for a maximum of 6 sec, or until a withdrawal response occurred. Once a withdrawal response to a von Frey hair was established, the paw was re-tested, starting with the filament below the one that produced a withdrawal, and subsequently with the remaining filaments in descending force sequence until no withdrawal occurred. The highest force of 26 g lifted the paw as well as eliciting a response, thus represented the cut off point. Each animal had both hind paws tested in this manner. The lowest amount of force required to elicit a response was recorded as paw withdrawal threshold (PWT) in grams. Static allodynia was defined as present if animals responded to a stimulus of, or less than, 4 g, which is innocuous in naive rats (Field M J, Bramwell S, Hughes J, Singh L. Detection of static and dynamic components of mechanical allodynia in rat models of neuropathic pain: are they signalled by distinct primary sensory neurones? Pain, 1999; 83:303-11).
All the experiments were conducted in blind. When the experiment was carried out in more then one day and where technically possible, all groups occurred on each day with equal replication. Static allodynia was expressed as median [LQ; UQ] and analysed by Mann Whitney U test. Dynamic allodynia was expressed as arithmetic mean±SEM and analysed by ANOVA.

[2] = test system: CCI-induced dynamic allodynia; assay: Dynamic allodynia (cotton bud stroking) in the chronic constriction injury (CCI) rat model of neuropathic pain; format: in vivo
Experimental: Male Sprague Dawley rats weighing 150-400 g obtained from Charles River (Manston, Kent, UK.) were housed in groups of 4. All animals were kept under a 12 h light/dark cycle (lights on at 07 h 00 min) with food and water ad libitum. All experiments were carried out by an observer blind to the treatments and in accordance with the Home Office Animals (Scientific Procedures) Act 1986. The CCI of sciatic nerve was performed as previously described by Bennett and Xie (Bennett G J, Xie Y K. A peripheral mononeuropathy in rat that produces disorders of pain sensation like those seen in man. Pain: 33:87-107, 1988). Animals were anaesthetised with a 2% isofluorane/O2 mixture. The right hind thigh was shaved and swabbed with 1% iodine. Animals were then transferred to a homeothermic blanket for the duration of the procedure and anaesthesia maintained during surgery via a nose cone. The skin was cut along the line of the thighbone. The common sciatic nerve was exposed at the middle of the thigh by blunt dissection through biceps femoris. About 7 mm of nerve was freed proximal to the sciatic trifurcation, by inserting forceps under the nerve and the nerve gently lifted out of the thigh. Suture was pulled under the nerve using forceps and tied in a simple knot until slight resistance was felt and then double knotted. The procedure was repeated until 4 ligatures (4-0 silk) were tied loosely around the nerve with approx 1 mm spacing. The incision was closed in layers. Dynamic allodynia was assessed by lightly stroking the plantar surface of the hind paw with a cotton bud. To avoid recording general motor activity, care was taken to perform this procedure in fully habituated rats that were not active. At least two measurements were taken at each time point, the mean of which represented the paw withdrawal latency (PWL). […] A pain withdrawal response was often accompanied with repeated flinching or licking of the paw. Dynamic allodynia was considered to be present if animals responded to the cotton stimulus within 8 sec of commencing stroking (Field et al, 1999). All the experiments were conducted in blind. When the experiment was carried out in more then one day and where technically possible, all groups occurred on each day with equal replication. Static allodynia was expressed as median [LQ; UQ] and analysed by Mann Whitney U test. Dynamic allodynia was expressed as arithmetic mean±SEM and analysed by ANOVA.

[3] = CCI rats, PO, 0.3, 1 and 3 mg/kg
[4] = CCI rats, PO, post administration
[5] = CCI rats, oral (PO), doses 0.3, 1 and 3 mg/kg
[6] = highest dose (3 mg/kg PO) vs gabapentin 100 mg/kg PO
[7] = highest dose (3 mg/kg PO), post dose, p<0.01 vs vehicle

In the case of `O=C(O)CCCOc1ccc(Cl)c2c1C1(CCCCC1)NC(=O)N2` [5′-(3-(Carboxy)propoxy)-8′-chlorospiro[cyclohexane-1,4′-quinazolin]-2′(1′H)-one], the “effect on CCI-induced static allodynia” value [1, 3] was “reversed the maintenance of CCI-induced static and dynamic allodynia in a dose dependent manner”, the “time of peak effect, static allodynia” value [1, 4] was 1 h and the “MED for static allodynia” value [1, 5] was 1 mg/kg. The “static allodynia reversal, curve profile versus gabapentin” value [1, 6] was “comparable to gabapentin”, the “onset of anti-allodynic effect, static allodynia” value [1, 7] was 30 min and the “effect on CCI-induced dynamic allodynia” value [2, 3] was “reversed the maintenance of CCI-induced static and dynamic allodynia in a dose dependent manner”. The “time of peak effect, dynamic allodynia” value [2, 4] was 1 h, the “MED for dynamic allodynia” value [2, 5] was 3 mg/kg and the “dynamic allodynia effect versus gabapentin” value [2, 6] was “less potent but significantly different from vehicle treated CCI rats”. The “dynamic allodynia, paw withdrawal latency (mean±SEM)” value ([2]; highest dose (3 mg/kg PO), 1 hrs post administration, vehicle treated CCI rats 3.7±0.7, latency recorded in sec, in s) was 10.2±1.4 and the “onset of anti-allodynic effect, dynamic allodynia” value [2, 7] was 30 min.
